Starred links: 1 amine or outer side, 2 acyl side, 3 side chain; linkers in the order of their positions; H or OH if unused. Residues, ends and D or L forms follow the SMILES beside them. Groups on a side chain read outwards from the residue. *: point of attachment. TTDA(Palmitoyl) = CCCCCCCCCCCCCCCC(=O)NCCCOCCOCCOCCCN*; Suc = O=C(CCC(=O)[*:2])[*:1]
Tested on: urinary metabolites
Assay: NMR-based metabolomics of urine of DIO mice
Type: in vivo, C57BL/6 mice
Set-up: key to DMA, Mean / DMG, Mean / MA, Mean / TMA, Mean / acetate, Mean / allantoin, Mean / carnitine, Mean / choline, Mean / cis-aconitate, Mean / creatine+creatinine, Mean / creatine, Mean / creatinine, Mean / ethanolamine, Mean / formate, Mean / galactose, Mean / glucose, Mean / glycine, Mean / lactate, Mean / succinate, Mean / vinylacetylglycine, Mean: TSA-normalized intensity of the metabolite's representative NMR signal
Conditions: urine of DIO mice, NMR metabolomics
Method: Urine samples for NMR-based metabolomics were collected prior to the start of the interventions and at the end of the experiment. For overnight urine collection (from 5 pm to 8 am), the mice were housed in individual metabolic cages (Tecniplast, Buguggiate, Italy) without access to food. Samples were collected with the addition of NaN3 and stored at -80°C until NMR analysis.
The urine samples were thawed at room temperature and centrifuged at 13 684 x g for 5 min prior to the NMR experiments. A 200-μl aliquot of supernatant was diluted with 340 μl of H2O mixed with 60 μl of phosphate buffer (1.5 M KH2PO4 in D2O containing 2 mM NaN3 and 0.1% trimethylsilyl propionic acid (TSP), pH 7.4) and transferred to a 5-mm NMR tube. The NMR data were acquired with a 600 MHz Bruker Avance III spectrometer (Bruker BioSpin, Rheinstetten, Germany) equipped with a 5-mm TCI cryogenic probe head. All of the experiments were performed at 300 K. Automatic tuning, matching, shimming and adjusting of the 90° pulse length were performed for each sample.
As mouse urine naturally contains urinary proteins, the NMR spectra were acquired using a Carr-Purcell-Meiboom-Gill (CPMG) pulse sequence with water presaturation (Bruker pulse sequence cpmgpr1d) to eliminate the strong protein background. […] For better metabolite identification, a short J-resolved experiment with presaturation (NS = 2, SW = 16 ppm, TD = 8k, number of increments = 40, SW = 78.125 Hz in the indirect dimension, and relaxation delay = 2 s) was executed for all samples. Additional two-dimensional ^1H-^1H correlation spectroscopy (COSY) and ^1H-^13C heteronuclear multiple-quantum correlation (HMQC) experiments (Bruker pulse sequences cosygpprqf and hmqcphpr) were performed for selected samples.
The acquired data were processed using Topspin 3.2 software (Bruker BioSpin, Rheinstetten, Germany). Line broadening of 0.3 Hz was applied on free induction decays (FIDs) prior to Fourier transformation. The spectra were automatically phased, baseline corrected and referenced to the signal of TSP (0.00 ppm).
The assignment of individual metabolites was achieved by comparing the proton spectra with the spectra of pure metabolites using Chenomx NMR Suite 7.6 (Chenomx Inc., Edmonton, AB, Canada), the HMDB database and previously published metabolomic data. The identification of metabolites was supported through J-resolved and COSY experiments and, if possible, confirmed using carbon chemical shifts extracted from the HMQC spectra.
For quantitation of individual metabolites, the CPMG spectra were uniformly binned in the range of 0.10–10.00 ppm to 0.01-ppm intervals using AMIX software (Bruker BioSpin, Rheinstetten, Germany). This procedure reduced the dimensionality of the data, eliminated chemical shift variations and thus simplified the reproducible automatic quantification. Regions corresponding to water (4.60–4.90 ppm) and urea (5.60–6.00 ppm) were removed prior to analysis. As the dilutions of the original urine samples differed (due to the differences in water intake during urine collection), all of the spectra were normalized to the total spectral area (TSA). For each identified metabolite, one representative signal was chosen and then quantified as the sum of appropriate adjacent 0.01-ppm bins to cover the whole signal width. The metabolite concentration was expressed as the TSA-normalized intensity of the respective signal. For selection of an appropriate statistical method (parametric or non-parametric) the Lilliefors test of normality was performed. […] Metabolite alterations with a P < 0.05 were considered statistically significant. Statistical analysis was performed using Matlab software (“MATLAB version 8.6 (R2015b). Natick, Massachusetts: The MathWorks Inc., 2015.,” n.d.). […]

[1] = difference of analog mean vs saline mean

Compound: CCCCCCCCCCCCCCCC(=O)NCCCOCCOCCOCCCNC(=O)CCC(=O)NCCCC[C@H](NC(=O)[C@@H](NC(=O)[C@H](CCC(=O)O)NC(=O)[C@H](CCSC)NC(=O)[C@H](CO)NC(=O)[C@H](Cc1c[nH]cn1)NC(=O)[C@H](CCCNC(=N)N)NC(=O)[C@H](Cc1c[nH]cn1)NC(=O)[C@@H](NC(=O)[C@H](CCCNC(=N)N)NC(=O)[C@H](CO)NC(=O)CCC(=O)NCCCOCCOCCOCCCNC(=O)CCCCCCCCCCCCCCC)[C@@H](C)O)[C@@H](C)CC)C(=O)N[C@H](C(=O)N1CCC[C@H]1C(=O)N[C@@H](CC(=O)O)C(=O)N[C@H](C(=O)N[C@@H](CC(N)=O)C(=O)N1CCC[C@H]1C(=O)N[C@@H](C)C(=O)N[C@@H](Cc1c[nH]c2ccccc12)C(=O)N[C@@H](Cc1ccc(O)cc1)C(=O)N[C@@H](C)C(=O)N[C@@H](CO)C(=O)N[C@@H](CCCNC(=N)N)C(=O)NCC(=O)N[C@H](C(=O)N[C@@H](CCCNC(=N)N)C(=O)N1CCC[C@H]1C(=O)N[C@H](C(=O)NCC(=O)N[C@@H](CCCNC(=N)N)C(=O)N[C@@H](Cc1ccccc1)C(N)=O)C(C)C)[C@@H](C)CC)[C@@H](C)CC)[C@@H](C)O [analog 3] ({TTDA(Palmitoyl)-Suc}-SRTHRHSMEIK([Suc-TTDA(Palmitoyl)])TPDINPAWYASRGIRPVGRF-NH2)
- creatine, Saline/analog % [1]: 0.053%
- creatinine, Saline/analog % [1]: 0.053%
- ethanolamine, Saline/analog % [1]: 0.053%
- formate, Saline/analog % [1]: 0.00334%
- fumarate, Saline/analog % [1]: -0.141%
- galactose, Saline/analog % [1]: -0.254%
- glucose, Saline/analog % [1]: -0.116%
- glycine, Saline/analog % [1]: -0.035%
- hexanoylglycine + acids (0.88 ppm), Saline/analog % [1]: 0.165%
- hippurate (7.55 ppm), Saline/analog % [1]: -0.140%
- hippurate (7.64 ppm), Saline/analog % [1]: -0.133%
- hippurate (7.84 ppm), Saline/analog % [1]: -0.124%
- lactate, Saline/analog % [1]: 0.112%
- multiplet acids (1.6 ppm), Saline/analog % [1]: 0.172%
- putrescin, Saline/analog % [1]: -0.021%
- succinate, Saline/analog % [1]: -0.140%
- taurine (3.27 ppm), Saline/analog % [1]: -0.063%
- taurine (3.43 ppm), Saline/analog % [1]: -0.093%
- trigonelline (8.84 ppm), Saline/analog % [1]: -0.159%
- trigonelline (9.13 ppm), Saline/analog % [1]: -0.171%
- vinylacetylglycine, Saline/analog % [1]: 0.175%
- 2-OG (2.45 ppm), Mean (group mean): 11.878
- 2-OG (3.01 ppm), Mean (group mean): 10.469
- 2-PY (8.33 ppm), Mean (group mean): 1.098
- 3-indoxylsulfate (7.51 ppm), Mean (group mean): 1.344
- 3-indoxylsulfate (7.71 ppm), Mean (group mean): 0.810
- 4-PY (7.97 ppm), Mean (group mean): 2.017
- 4-PY (8.55 ppm), Mean (group mean): 0.633
- DMA, Mean (group mean): 5.618
- DMG, Mean (group mean): 1.853
- MA, Mean (group mean): 3.016
- MNA (8.90 ppm), Mean (group mean): 0.487
- MNA (8.97 ppm), Mean (group mean): 0.470
- MNA (9.265 ppm), Mean (group mean): 0.490
- MNA-Nox (7.75 ppm), Mean (group mean): 0.972
- MNA-Nox (8.13 ppm), Mean (group mean): 0.792
- MNA-Nox (8.49 ppm), Mean (group mean): 0.511
- MNA-Nox (8.75 ppm), Mean (group mean): 0.485
- N-carbamoylalanine (2.38 ppm), Mean (group mean): 11.854
- N-carbamoylalanine (3.31 ppm), Mean (group mean): 9.499
- N-isovalerylglycine + oxovalerate (0.92 ppm), Mean (group mean): 16.056
- TMA, Mean (group mean): 11.780
- acetate, Mean (group mean): 3.429
- allantoin, Mean (group mean): 22.447
- carnitine, Mean (group mean): 6.067
- choline, Mean (group mean): 1.970
- cis-aconitate, Mean (group mean): 8.481
- citrate (2.55 ppm), Mean (group mean): 29.434
- citrate (2.69 ppm), Mean (group mean): 26.220
- creatine+creatinine, Mean (group mean): 24.904
- creatine, Mean (group mean): 7.343
- creatinine, Mean (group mean): 11.686
- ethanolamine, Mean (group mean): 8.370
- formate, Mean (group mean): 0.199
- fumarate, Mean (group mean): 0.151
- galactose, Mean (group mean): 0.578
- glucose, Mean (group mean): 3.207
- glycine, Mean (group mean): 5.874
- hexanoylglycine + acids (0.88 ppm), Mean (group mean): 15.361
- hippurate (7.55 ppm), Mean (group mean): 3.987
- hippurate (7.64 ppm), Mean (group mean): 2.057
- hippurate (7.84 ppm), Mean (group mean): 4.311
- lactate, Mean (group mean): 6.853
- multiplet acids (1.6 ppm), Mean (group mean): 12.521
- putrescin, Mean (group mean): 8.726
- succinate, Mean (group mean): 9.267
- taurine (3.27 ppm), Mean (group mean): 24.146
- taurine (3.43 ppm), Mean (group mean): 20.508
- trigonelline (8.84 ppm), Mean (group mean): 0.263
- trigonelline (9.13 ppm), Mean (group mean): 0.106
- vinylacetylglycine, Mean (group mean): 3.527

— paper PMC5562305, “Impact of novel palmitoylated prolactin-releasing peptide analogs on metabolic changes in mice with diet-induced obesity” (PLoS ONE, 2017)
